The text below walks through data of patent US10758534B2 (Vertex Pharmaceuticals Incorporated, priority 2014, dated 2020).

In one assay the target is T1, F508del (Homo sapiens, UniProt P13569, DEL508-508).
T1 construct: expressed in transfected cells
T1 sequence (P13569 with tags, fused parts or gaps DEL508-508): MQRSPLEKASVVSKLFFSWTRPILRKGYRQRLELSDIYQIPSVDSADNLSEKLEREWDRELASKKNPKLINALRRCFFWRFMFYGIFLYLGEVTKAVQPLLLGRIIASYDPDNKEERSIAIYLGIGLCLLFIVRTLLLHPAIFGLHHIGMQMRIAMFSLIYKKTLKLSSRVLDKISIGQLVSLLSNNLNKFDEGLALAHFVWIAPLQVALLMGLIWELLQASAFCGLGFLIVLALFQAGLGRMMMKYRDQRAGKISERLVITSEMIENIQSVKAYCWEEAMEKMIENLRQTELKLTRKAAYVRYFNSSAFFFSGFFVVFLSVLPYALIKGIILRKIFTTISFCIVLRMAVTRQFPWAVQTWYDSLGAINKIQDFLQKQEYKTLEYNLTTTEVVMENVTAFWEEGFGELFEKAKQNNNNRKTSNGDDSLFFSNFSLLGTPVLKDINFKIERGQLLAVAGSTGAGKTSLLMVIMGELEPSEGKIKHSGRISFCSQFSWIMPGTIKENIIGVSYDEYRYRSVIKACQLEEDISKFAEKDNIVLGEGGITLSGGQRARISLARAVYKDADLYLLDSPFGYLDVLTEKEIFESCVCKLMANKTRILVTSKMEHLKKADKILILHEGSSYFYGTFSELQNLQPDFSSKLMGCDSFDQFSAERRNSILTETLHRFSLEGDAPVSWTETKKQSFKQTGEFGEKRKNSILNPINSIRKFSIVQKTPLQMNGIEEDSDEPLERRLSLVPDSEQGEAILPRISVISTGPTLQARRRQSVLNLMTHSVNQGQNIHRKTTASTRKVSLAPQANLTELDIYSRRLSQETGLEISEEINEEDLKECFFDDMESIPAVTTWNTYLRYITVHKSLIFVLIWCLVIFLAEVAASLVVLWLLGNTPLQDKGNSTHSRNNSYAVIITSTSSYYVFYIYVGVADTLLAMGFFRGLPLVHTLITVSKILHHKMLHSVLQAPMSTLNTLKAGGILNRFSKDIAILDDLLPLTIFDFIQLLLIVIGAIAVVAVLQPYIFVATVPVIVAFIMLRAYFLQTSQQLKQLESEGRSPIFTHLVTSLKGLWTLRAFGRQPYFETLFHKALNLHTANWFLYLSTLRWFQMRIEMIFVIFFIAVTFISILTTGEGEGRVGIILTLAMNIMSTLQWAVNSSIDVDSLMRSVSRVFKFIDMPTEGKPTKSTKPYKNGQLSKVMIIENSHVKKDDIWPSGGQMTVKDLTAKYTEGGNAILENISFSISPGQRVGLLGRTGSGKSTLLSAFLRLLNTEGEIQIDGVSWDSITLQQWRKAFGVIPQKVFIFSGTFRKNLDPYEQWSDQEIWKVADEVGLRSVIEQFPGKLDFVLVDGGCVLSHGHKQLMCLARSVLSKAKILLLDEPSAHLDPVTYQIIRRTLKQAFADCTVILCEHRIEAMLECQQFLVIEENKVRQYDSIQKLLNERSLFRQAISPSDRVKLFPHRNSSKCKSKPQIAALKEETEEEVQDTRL
Put plainly: Protocol 2: FRET membrane potential optical assay (VIPR), identification of correction compounds. The format is cell-based. Conditions: F508del CFTR modulator activity; compounds of Table 1; read-out: EC30. The method in brief:
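Correction of the F508del trafficking defect is scored as forskolin (10 μM)/genistein (20 μM)-stimulated Cl^− efflux in NIH3T3 mouse fibroblasts after a 16 hr, 37° C. compound exposure. Depolarization was followed optically using voltage-sensing FRET dyes.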
On to `COc1cc(Nc2cccc(S(=O)(=O)NC(=O)c3cccnc3N3CC(C)CC3(C)C)n2)cc(OC)c1` (stereo not drawn) [Compound 2357, N—[[6-(3,5-dimethoxyanilino)-2-pyridyl]sulfonyl]-2-(2,2,4-trimethylpyrrolidin-1-yl)pyridine-3-carboxamide], for which the EC30 was below 3000 nM.

With `Cc1cccc(-c2ccc(C(=O)NS(=O)(=O)c3ccc[nH]c3=O)c(N3C[C@@H](C)CC3(C)C)n2)c1C` [Compound 2073, 6-(2,3-dimethylphenyl)-N-[(2-oxo-1H-pyridin-3-yl)sulfonyl]-2-[(4S)-2,2,4-trimethylpyrrolidin-1-yl]pyridine-3-carboxamide], the EC30 was below 3000 nM.

On to `COc1ccc(F)cc1-c1ccc(C(=O)NS(=O)(=O)c2cccnc2N)c(N2C[C@@H](C)CC2(C)C)n1` [Compound 2189, N-[(2-amino-3-pyridyl)sulfonyl]-6-(5-fluoro-2-methoxy-phenyl)-2-[(4S)-2,2,4-trimethylpyrrolidin-1-yl]pyridine-3-carboxamide], for which the EC30 was below 3000 nM.

Consider `CC1CN(c2ncccc2C(=O)NS(=O)(=O)c2cccc(N3CC[C@@H](NC(=O)OC(C)(C)C)C3)n2)C(C)(C)C1` (stereo partly drawn) [Compound 2537, tert-butyl N-[(3R)-1-[6-[[2-(2,2,4-trimethylpyrrolidin-1-yl)pyridine-3-carbonyl]sulfamoyl]-2-pyridyl]pyrrolidin-3-yl]carbamate], for which the EC30 lay within 3000 to 10000 nM.

On to `CC(C)COc1cc(F)cc(-c2ccc(C(=O)NS(=O)(=O)c3cccc(N)n3)c(N3CCC[C@@H]3C(=O)OC(C)(C)C)n2)c1` [Compound 2216, tert-butyl (2R)-1-[3-[(6-amino-2-pyridyl)sulfonylcarbamoyl]-6-(3-fluoro-5-isobutoxy-phenyl)-2-pyridyl]pyrrolidin-2-carboxylate], for which the EC30 is below 3000 nM.

For the molecule `CC1CN(c2ncccc2C(=O)NS(=O)(=O)c2cccc(Oc3c(F)cc(F)cc3F)n2)C(C)(C)C1` (stereo not drawn) [Compound 2654, N—[[6-(2,4,6-trifluorophenoxy)-2-pyridyl]sulfonyl]-2-(2,2,4-trimethylpyrrolidin-1-yl)pyridine-3-carboxamide], the EC30 is below 3000 nM.

Turning to `COCCOc1ncc(-c2ccc(C(=O)NS(=O)(=O)c3cccc(N)n3)c(N3C[C@@H](C)CC3(C)C)n2)cc1C` [Compound 2582, N-[(6-amino-2-pyridyl)sulfonyl]-6-[6-(2-methoxyethoxy)-5-methyl-3-pyridyl]-2-[(4S)-2,2,4-trimethylpyrrolidin-1-yl]pyridine-3-carboxamide], the EC30 was below 3000 nM.

Take `C[C@@H]1CN(c2ncccc2C(=O)NS(=O)(=O)N2CC[C@@H](NCc3ccc(F)c(OC(F)(F)F)c3)C2)C(C)(C)C1` [Compound 2680]: the 30% effect concentration (EC30) was in the range of 3000 to 10000 nM.

The same assay, now with this note: Table 3; compounds of Table 1 as modulators of CFTR activity; protocol not stated.
`Cc1cc(C)c(Oc2nc(C(C)(C)C)ccc2C(=O)NS(=O)(=O)c2cccc(N(C)C)n2)c(C)c1` [Compound 468, 6-tert-butyl-N-[[6-(dimethylamino)-2-pyridyl]sulfonyl]-2-(2,4,6-trimethylphenoxy)pyridine-3-carboxamide]: the EC30 result is reported as “+++ (“+++” means <3 uM)”.

For `COc1cc(F)cc(-c2ccc(C(=O)NS(=O)(=O)c3ccc[nH]c3=O)c(Oc3c(C)cc(C)cc3C)n2)c1` [Compound 652, 6-(3-fluoro-5-methoxy-phenyl)-N-[(2-oxo-1H-pyridin-3-yl)sulfonyl]-2-(2,4,6-trimethylphenoxy)pyridine-3-carboxamide], the EC30 entry was “++ (“++” means between 3 uM and 10 uM)”.

Take `Cc1cc(C)c(Cn2c(C(=O)NS(=O)(=O)c3cccc(N)c3)cc3ccc(C)cc32)c(C)c1` [Compound 62, N-(3-aminophenyl)sulfonyl-6-methyl-1-[(2,4,6-trimethylphenyl)methyl]indole-2-carboxamide]: the EC30 entry is on record as “+++ (“+++” means <3 uM)”.

As for `CCOc1ccc(-c2ccc(C(=O)NS(=O)(=O)c3cccc(N)n3)c(-c3ccc(C)cc3)n2)cc1` [Compound 409, N-[(6-amino-2-pyridyl)sulfonyl]-6-(4-ethoxyphenyl)-2-(p-tolyl)pyridine-3-carboxamide], the EC30 result is recorded as “+ (“+” means greater than 10 uM)”.

Usually EC30 stands for the concentration needed for an effect of 30%.
